Results reported in ChEMBL document CHEMBL5634150, “Design, synthesis and biological evaluation of novel dihydroquinolin-4(1H)-one derivatives as novel tubulin polymerization inhibitors” (Eur J Med Chem, 2023).
Activity calls are given as the source filed them. The calls are words filed in the database; no cut-off is given here.

Experiments:
A549 = assay: Antiproliferative activity against human A549 cells assessed as inhibition of cell growth at 0.01 uM measured after 72 hrs by MTT assay relative to control; assay type: functional
[1] = Resistance index, ratio of IC50 for antiproliferative activity against human A549/Taxol cells to IC50 for antiproliferative activity against human A549 cells; assay type: functional
Tubulin (Homo sapiens) = Tubulin (Homo sapiens) (UniProt P68371+Q9H4B7+P0DPH7+P68366+Q13509+Q71U36+P04350+Q3ZCM7+P07437+P68363+Q9BQE3+Q6PEY2+Q13885+Q9BVA1+Q9BUF5); assay: Inhibition of [3H]colchicine binding to tubulin (unknown origin) at 1 uM incubated for 2 hrs by scintillation counter analysis relative to control; assay type: protein-complex assay
K562 [2] = assay: Induction of apoptosis in human K562 cells assessed as chromatin aggregation at 1.5 to 6 nM incubated for 24 hrs by Hoechst 33342 staining based fluorescence microscopic analysis; assay type: functional, cell-based; conditions: dose 1.5-6 nM
K562 [3] = assay: Induction of apoptosis in human K562 cells assessed as downregulation of bcl-xl level at upto 6 nM measured after 48 hrs by Western blot analysis; assay type: functional, cell-based
K562 [4] = assay: Induction of cell cycle arrest in human K562 cells assessed as accumulation of cells at G1 phase at 3 nM incubated overnight by PI staining based flow cytometry analysis (reference value: 78.45%); assay type: functional
K562 [5] = assay: Induction of cell cycle arrest in human K562 cells assessed as accumulation of cells at S phase at 3 nM incubated overnight by PI staining based flow cytometry analysis (reference value: 15.98%); assay type: functional
K562 [6] = assay: Induction of cell cycle arrest in human K562 cells assessed as accumulation of cells at S phase at 6 nM incubated overnight by PI staining based flow cytometry analysis (reference value: 15.98%); assay type: functional
K562 [7] = assay: Induction of cell cycle arrest in human K562 cells assessed as accumulation of cells at G2/M phase at 1.5 nM incubated overnight by PI staining based flow cytometry analysis (reference value: 5.57%); assay type: functional
K562 [8] = assay: Induction of cell cycle arrest in human K562 cells assessed as accumulation of cells at G2/M phase at 3 nM incubated overnight by PI staining based flow cytometry analysis (reference value: 5.57%); assay type: functional
K562 [9] = assay: Induction of ROS generation in human K562 cells incubated for 24 hrs by DCFH-DA staining based assay; assay type: functional, cell-based; conditions: dose 1.5-6 nM
MDA-MB-231 = assay: Inhibition of cell migration in human MDA-MB-231 cells measured after 48 hrs by crystal violet staining microscopy based transwell migration assay; assay type: functional; conditions: dose 1.5-6 nM
HUVEC = assay: Anti-angiogenesis activity in HUVEC cells assessed as reduction in […] at 400 nM measured after 24 hrs by wound healing assay relative to control; assay type: functional, Homo sapiens; set-up: scale not given: the % may be the effect or the level left
[10] = Toxicity in mouse assessed as effect on liver at 20 mg/kg by H and E staining based microscopic analysis; assay type: organism-based; conditions: in vivo
H22 [11] = assay: Antitumor activity against mouse H22 cells allografted in mouse model assessed as decrease in Ki67 positive cells at 20 mg/kg by immunohistochemistry analysis; assay type: functional, organism-based
H22 [12] = assay: Antitumor activity against mouse H22 cells allografted in mouse model assessed as decrease in MVD cells at 20 mg/kg by immunohistochemistry analysis; assay type: functional, organism-based

For `CCn1ccc2cc(N3CCC(=O)c4c3cc(OC)c(OC)c4OC)ccc21`, the inhibition at 0.01 µM (A549) was 73.6%, the “Ratio IC50” value [1] was 5.38 and the inhibition (Tubulin (Homo sapiens)) was 63.9%. The Activity (K562 [2]) was “Active”, the Activity (K562 [3]) was “Active” and the Activity (K562 [4]) was 59.63%. For the same compound, the Activity (K562 [5]) was 28.04%, the Activity (K562 [6]) was 30.18% and the Activity (K562 [7]) was 10.62%. The Activity (K562 [8]) was 12.33%, the Activity (K562 [9]) was “Dose-Dependent Effect” and the inhibition (MDA-MB-231) was “Dose-Dependent Effect”. The Activity (HUVEC) was under 50%, the Activity [10] was “Non-Toxic” and the Activity (H22 [11]) was “Active”. The Activity (H22 [12]) was “Active”.
